Laboratory results taken from patent publication US7700654B2 (LTS Lohmann Therapie-Systeme AG, priority 2005, dated 2010).

Assays:
[1] = cited from earlier work
[2] = environment; cited from earlier work
[3] = tested on: LNCaP cells; assay: growth inhibition of human prostate carcinoma cells (cell counting); format: cell-based; details: 0.1 μM OH—F
Description: The growth of prostate cells and prostate cancer cells is originally dependent on androgens.
The cells were trypsinized and counted using a counting cell chamber on the indicated days.

[4] = molecular target: T1, human androgen receptor (hAR) (Homo sapiens, UniProt P10275); assay: reporter gene-based (MMTV-luc luciferase) test for antiandrogenic activity in transfected CV1 cells; format: cell-based; details: compounds at 10 μM; high R1881 concentration 3×10^−8 M
T1 construct: expressed in transfected cells; host or cells: CV1 monkey kidney cells (lacking endogenous androgen receptor)
T1 sequence (P10275 1-920): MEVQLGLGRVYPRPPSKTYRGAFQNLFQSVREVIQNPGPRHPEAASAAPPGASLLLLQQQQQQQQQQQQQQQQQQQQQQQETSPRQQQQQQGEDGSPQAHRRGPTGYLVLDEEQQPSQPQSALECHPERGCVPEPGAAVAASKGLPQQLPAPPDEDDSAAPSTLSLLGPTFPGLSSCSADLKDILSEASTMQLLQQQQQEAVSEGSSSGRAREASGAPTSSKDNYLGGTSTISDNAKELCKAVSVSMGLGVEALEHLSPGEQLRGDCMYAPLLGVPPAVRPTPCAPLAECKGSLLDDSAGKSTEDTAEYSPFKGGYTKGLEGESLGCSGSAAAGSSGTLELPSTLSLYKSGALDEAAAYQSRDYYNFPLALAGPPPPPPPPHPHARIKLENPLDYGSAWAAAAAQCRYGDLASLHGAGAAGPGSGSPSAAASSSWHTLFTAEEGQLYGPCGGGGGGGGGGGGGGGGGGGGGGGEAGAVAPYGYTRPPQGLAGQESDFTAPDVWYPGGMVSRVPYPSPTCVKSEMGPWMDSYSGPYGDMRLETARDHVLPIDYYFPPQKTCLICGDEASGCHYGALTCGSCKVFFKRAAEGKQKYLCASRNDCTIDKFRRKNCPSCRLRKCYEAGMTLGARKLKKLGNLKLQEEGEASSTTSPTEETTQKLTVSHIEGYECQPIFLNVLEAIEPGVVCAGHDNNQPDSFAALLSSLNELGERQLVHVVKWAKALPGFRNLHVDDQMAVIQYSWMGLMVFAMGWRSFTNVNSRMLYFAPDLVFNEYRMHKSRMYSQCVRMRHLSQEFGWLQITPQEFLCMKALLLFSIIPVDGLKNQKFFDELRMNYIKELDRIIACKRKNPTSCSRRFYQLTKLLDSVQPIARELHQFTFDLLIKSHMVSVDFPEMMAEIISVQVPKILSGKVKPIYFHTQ
Experimental: Monkey kidney cells, line CV1, lacking endogenous androgen receptor were cultured in Dulbecco's modified Eagle's medium (DMEM), supplemented with 10% (v/v) fetal calf serum, penicillin (100 IU/ml) and streptomycin (100 IU/ml) at 37° C. and 5% CO2.
For the transfection experiments, cells were seeded onto 6-well tissue culture plates (Nunc, Roskilde, Denmark) with a density of 1.2×10^5 cells per well and grown in DMEM medium supplemented with 10% (v/v) dextran-coated activated charcoal stripped serum. Six hours after seeding, the cells were transfected by using the Ca3(PO4)2 method. The human androgen receptor (hAR) expression vector (0.2 μg) was cotransfected with 1 μg of the reporter plasmid MMTV-luc and 0.2 μg of the cytomegalovirus (CMV)-driven β-galactosidase expression […], as internal control for transfection efficiency. After 14 hours, the medium was replaced either without (white bars in FIGS. […] 1), fractions (FIG. 2) or substances (FIG. 3). After an additional 48 hours, cells were harvested and assayed for luciferase and β-galactosidase activity.
Luciferase activity was determined by injecting luciferin and measuring light emission at 562 nm and expressed as relative light units (RLU) by using the values of β-galactosidase activity for normalisation of the luciferase activity. All transfection assays shown were performed in duplicate and were repeated at least twice.
For determining antiandrogenic activity in the various extracts from the bark of P. africanum, the extracts were used at a concentration of 300 μg/ml.
For determining the antiandrogenic activity in the fractions of the selective methylene chloride extracts, 2 μl of the respective fraction was used, corresponding to a final concentration of 30 μg/ml. Fractions F6 to F10 were additionally tested with 4 μl, corresponding to 60 μg/ml final concentration.

SMILES: CCCCNS(=O)(=O)c1ccccc1 [NBBS, N-butylbenzenesulfonamide]
- solubility in alcohols and benzene ([1]; alcohols and benzene): moderate solubility
- solubility in water ([1]; water): practically insoluble
- stability [2]: very stable

SMILES: CC(C)(O)C(=O)Nc1ccc([N+](=O)[O-])c(C(F)(F)F)c1 [OH—F, hydroxyflutamide]
- proliferation of LNCaP cells (FIG. 4) [3]: did not lead to reduction in cell proliferation

SMILES: CC(C)=CCC/C(C)=C/CNS(=O)(=O)c1ccccc1 [S4, N-[(2E)-3,7-Dimethylocta-2,6-diene-1-yl]benzenesulfonamide]
- inhibition of the AR-mediated transactivation, compared with NBBS (FIG. 6) [4]: enhanced the antiandrogenic activity

SMILES: CCCCCNS(=O)(=O)c1ccccc1 [S9, N-Pentylbenzenesulfonamide]
- inhibition of the AR-mediated transactivation, compared with NBBS (FIG. 6) [4]: enhanced the antiandrogenic activity

SMILES: CCCCNS(=O)(=O)c1cccc(C(F)(F)F)c1 [S10, N-Butyl-3-(trifluoromethyl)benzenesulfonamide]
- inhibition of the AR-mediated transactivation, compared with NBBS (FIG. 6) [4]: enhanced antiandrogenic activity

SMILES: CC(C)=CCC/C(C)=C/CNS(=O)(=O)c1cccc(C(F)(F)F)c1 [S11, N-[(2E)-3,7-dimethylocta-2,6-diene-1-yl]-3-(tri-fluoromethyl)benzenesulfonamide]
- inhibition of the AR-mediated transactivation, compared with NBBS (FIG. 6) [4]: enhanced antiandrogenic activity

SMILES: CCCCCCCCCCCCNS(=O)(=O)c1ccccc1 [S12, N-Dodecylbenzenesulfonamide]
- inhibition of the AR-mediated transactivation, compared with NBBS (FIG. 6) [4]: weakened the androgen antagonistic potency
- melting point: 59 to 61 °C

SMILES: CCCCNS(=O)(=O)c1ccc([N+](=O)[O-])c(C(F)(F)F)c1 [S13, N-Butyl-4-nitro-3-(trifluoromethyl)benzenesulfonamide]
- inhibition of the AR-mediated transactivation, compared with NBBS (FIG. 6) [4]: enhanced antiandrogenic activity

SMILES: CC(C)=CCC/C(C)=C/CNS(=O)(=O)c1ccc([N+](=O)[O-])c(C(F)(F)F)c1 [S14, N-[(2E)-3,7-Dimethylocta-2,6-diene-1-yl]-4-nitro-3-(trifluoromethyl)-benzenesulfonamide]
- inhibition of the AR-mediated transactivation, compared with NBBS (FIG. 6) [4]: enhanced antiandrogenic activity
